According to patent US5328823A, “Enzyme-based biosensors for detecting noble gases” (American Air Liquide, priority 1992, dated 1994):

Columns and labels:
[1] = test system: Tyrosinase; test: Tyrosinase/L-tyrosine biosensing bag (Curlon Grade 861) placed in gas-packaged food packages, rate of colour change; format: biochemical, Mushroom
Description: The above mentioned oxido-reductase system (tyrosinase/L-tyrosine) is placed inside a 3 cc bag by heat-sealing of the polymeric film used in protocol described above (Curlon Grade 861, Curwood).
The 3 cc bag is placed into a series of packages containing food products under different gas mixtures, which include neon, argon, krypton, xenon, oxygen, nitrogen and carbon dioxide. The relative rate of changing color of the device, that is the development of a pink-brown color, is monitored over time.
A similar series is run, but after holes have been punctured in the packages to simulate leaks. The rate of changing color is then monitored. Thus we have made a leak detection system.
In the same manner, the exchange of gases through the film of the packages and the change in respiration of fresh horticultural commodities can also be monitored. […] Preparation of a standard curve permits detection of each type of gas mix relative to the other, and also permits detection of a change in oxygen level caused by vegetable respiration.

[2] = test system: Tyrosinase; test: Gas biosensor diffusion cell, Tyrosinase/L-Tyrosine reaction monitored at 305 nm, Curlon Grade 861 film; format: biochemical, Mushroom; settings: gas in upper chamber of diffusion cell, 25° C.; for maximum change in enzymatic activity, Reference Air: compared to air diffusion through the film; for maximum change in enzymatic activity, Reference Nitrogen: compared to nitrogen
Description: Construction consists of coupling two 1-cm lightpath UV grade methacrylate covets with a ring of 100% silicone rubber (General Purpose Sealant, Dow Corning) applied on their outside rim. Before sealing with silicone, a 1-cm^2 square of a polymeric film of known permeabilities to the different gases is placed between the two cuvettes. Holes have been previously drilled in each covet (drill bit 7/64") to receive a septum (d=3 mm; h=8 mm; Supelco No. 3-3301M). 100% silicone rubber was applied around the septa to avoid possible leaks.
Tyrosinase/L-Tyrosine monitored at 305 nm
Enzyme: Tyrosinase (SIGMA No. T-7755) (Monophenol monooxygenase; Polyphenol oxidase; Catechol oxidase; Monophenol, dihydroxyphenylalanine: oxygen oxidoreductase; From Mushroom
Chamber 1 (upper) is flushed for 2 […] with 100% nitrogen (very low flow to prevent tearing of the polymeric film: line delivery pressure <5 psi) at ambient temperature (25° C.), using 22G11/2 needles (small gauge to reduce risks of leakage through holes in septa).
Chamber 2 (lower) is flushed in the same way as chamber 1.
Chamber 2 is then filled with 2.0 ml of N2 -saturated solution C, by means of a 3 cc syringe (previously purged with N2).
Before the spectrophotometric run, 20 cc of the appropriate gas (Air, N2, Ar, Kr, Xe) is passed through chamber 1 of each of the 3 diffusion cells simultaneously, by means of a 30 cc syringe.
Following immediately, the run starting time t0 is given by the simultaneous injections of 0.5 ml of N2 -saturated-solution B in chamber 2 of each diffusion cell. The 1 cc syringes used for sampling the 0.5 ml are previously purged with N2.
A selected example is given below for one of the enzymatic system/polymeric film tandems assayed. Given as well is the maximum change in enzymatic activity noted compared to the reaction resulting from air diffusion through the film, or compared to nitrogen. A sample graphic data output file is appended.
Polymeric film insert in diffusion cells: Curlon Grade 861 (CURWOOD).
Biochemical reaction (monitored at 305 nm): Tyrosinase/L-Tyrosine at 25° C. and optimal reaction conditions, gas in upper chamber of the diffusion cell being: […]

[3] = test system: particulate sialidase; settings: highly impure enzymes; the patent calls these results questionable; cited from earlier work
[4] = test system: β-D-Glucosidase; test: β-D-Glucosidase/p-Nitrophenyl-β-D-Glucopyranoside biosensing bag (PE 2 mil) in gas-packaged produce, rate of yellow colour change; format: biochemical, Almonds; settings: packaged vegetables, compared with nitrogen packaged produce; acceleration rather than inhibition
Description: The above mentioned hydrolase system (β-D-Glucosidase/p-Nitrophenyl-β-D-Glucopyranoside) is placed inside a 3 cc bag by heat-sealing of the polymeric film used in protocol described above (PE 2 mil).
The protocol followed is the same as described in the third detailed example of the invention, except for the fact that the colorigenic reaction observed is yellow, and is an acceleration rather than an inhibition. Thus, Kr packaged vegetables will produce a yellow color change in the device faster than will nitrogen packaged produce.

[5] = per atmosphere of added nitrous oxide; independent of oxygen partial pressure; cited from earlier work

Row | SMILES | rate of changing color of the biosensing device (pink-brown) ([1]; packaged vegetables, compared with the package under 100% N2) | maximum change in enzymatic activity, Reference Air [2] | maximum change in enzymatic activity, Reference Nitrogen [2] | effect on activity of particulate sialidase [3] | rate of yellow color change in the device [4] | rate of changing color of the biosensing device, case of a leak ([1]; package under 100% gas, compared with 100% N2) | inhibition per atmosphere of added gas [5]
1 | [Ar] [Ar, argon] | turns color more slowly | -25% | -21% |  |  |  | 
2 | [Xe] [Xe, xenon] |  | -30% | -26% | enhance the activity |  |  | 
3 | [Kr] [Kr, krypton] |  | -35% | -32% |  | faster | turns color more slowly | 
4 | FC(F)(F)C(Cl)Br (stereo not shown) [halothane] |  |  |  | enhance the activity |  |  | 
5 | [N-]=[N+]=O [nitrous oxide] |  |  |  | enhance the activity |  |  | 1.9%
